The results in this text go back to patent US20180194762A1 (Pharmacyclics LLC, priority 2017, published 2018).

Like-named read-outs stand apart in the source and are kept apart here.

Broadly, the IC50 is the concentration that inhibits the measured activity by half.

For test [1], the target named is T1, TEC (Homo sapiens, UniProt P42680).
T1 sequence (P42680 1-631): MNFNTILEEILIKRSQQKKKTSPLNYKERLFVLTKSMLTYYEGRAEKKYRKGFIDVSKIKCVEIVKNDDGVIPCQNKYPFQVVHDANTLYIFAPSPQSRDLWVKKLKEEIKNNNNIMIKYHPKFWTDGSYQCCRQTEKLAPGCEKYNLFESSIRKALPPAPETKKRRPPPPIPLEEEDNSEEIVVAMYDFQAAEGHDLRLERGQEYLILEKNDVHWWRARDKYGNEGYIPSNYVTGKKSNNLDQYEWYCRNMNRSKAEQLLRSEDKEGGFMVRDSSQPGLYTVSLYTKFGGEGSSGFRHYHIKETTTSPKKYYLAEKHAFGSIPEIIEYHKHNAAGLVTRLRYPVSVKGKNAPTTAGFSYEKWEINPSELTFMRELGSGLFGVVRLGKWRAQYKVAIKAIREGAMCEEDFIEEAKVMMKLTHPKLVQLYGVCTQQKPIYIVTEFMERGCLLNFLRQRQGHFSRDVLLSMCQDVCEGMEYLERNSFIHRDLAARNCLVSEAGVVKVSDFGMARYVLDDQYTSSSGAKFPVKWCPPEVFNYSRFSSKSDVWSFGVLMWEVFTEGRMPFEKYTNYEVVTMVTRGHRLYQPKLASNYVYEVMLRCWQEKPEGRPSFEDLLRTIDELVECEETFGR
In words: Inhibition of a panel of kinases (in vitro HotSpot kinase assay, 33P-ATP, 1 μM ATP). The test is classed as biochemical. The conditions noted are these: for IC50: HotSpot kinase assay, 1 μM ATP; for TEC/Btk: ratio of TEC IC50 to Btk IC50 (selectivity). The method, then:
Example 63: Inhibition of a Panel of Kinases The degree of inhibition of a panel of kinases is determined using the in vitro HotSpot kinase assay (purified enzymes, ^33P-ATP, an appropriate substrate and 1 μM ATP).

In test [2] the target is T2, Btk (Homo sapiens, UniProt Q06187).
T2 construct: purified from insect cells as a full-length construct containing a N-terminal 6X-His tag; His6 (N); made in house; host or cells: insect cells (Method C)
In words: Btk in vitro inhibitory activity (one of Method A TR-FRET, Method B electrophoretic mobility shift, Method C radiometric filter binding). The format is biochemical. The method, then: Example 62a: Btk In Vitro Inhibitory Activity (Method A)
Btk kinase activity is determined using a time-resolved fluorescence resonance energy transfer (TR-FRET) methodology. Measurements are performed in a reaction volume of 50 μL using 96-well assay plates. […] The reaction is quenched by the addition of 1.2 equivalents of EDTA (relative to divalent cation) in 25 μL of 1× Lance buffer (Perkin-Elmer). Streptavidin-APC (Perkin-Elmer) and Eu-labeled p-Tyr100 antibody (Perkin-Elmer) in 1× Lance buffer are added in a 25 μL volume to give final concentrations of 100 nM and 2.5 nM, respectively, and the mixture is allowed to incubate for one hour. The TR-FRET signal is measured on a multimode plate reader with an excitation wavelength (λEx) of 330 nm and detection wavelengths (λEm) of 615 and 665 nm. Activity is determined by the ratio of the fluorescence at 665 nm to that at 615 nm. For each compound, enzyme activity is measured at various concentrations of compound. Negative control reactions are performed in the absence of inhibitor in replicates of six, and two no-enzyme controls are used to determine baseline fluorescence levels. Inhibition constants, Ki(app), were obtained using the program BatchKi (Kuzmic et al. (2000), Anal. Biochem. 286:45-50). IC50s are obtained according to the equation:
IC50={Ki(app)/(1+[ATP]/Km^ATP)}+[E]total/2;
For all kinases, [ATP]=Km^ATP, [Btk]total=0.5 nM and [Lck]total=6 nM.
Example 62b: Btk In Vitro Inhibitory Activity (Method B)
Kinase activity is measured in vitro using electrophoretic mobility shift assay. The kinase reactions are assembled in a total volume of 25 μL in 384 well plates. The reactions comprise: BTK enzyme (1 nM, N-terminal His6-tagged, recombinant, full-length, human BTK purified from baculovirus Sf21 insect cell system, 293HEK, or other suitable source), inhibitor, ATP, fluorescently labeled peptide substrate (1 μM, FAM-GEEPLYWSFPAKKK-NH2) in a reaction buffer composed of 100 mM HEPES, pH7.5, 5 mM MgCl2 1 mM DTT, 0.1% bovine serum albumin, 0.01% Triton X-100, and 1% DMSO. The reaction is incubated and is quenched by the addition of termination buffer (100 mM HEPES, pH 7.5, 0.01% Triton X-100, 30 mM EDTA). The terminated reactions are analyzed using a 12 channel LabChip® 3000 microfluidic detection instrument (Caliper Life Sciences). The enzymatic phosphorylation of the peptide results in a change in net charge, enabling electrophoretic separation of product from substrate peptide. As substrate and product peptides are separated, two peaks of fluorescence are observed. Change in the relative fluorescence intensity of the substrate and product peaks is the parameter measured, reflecting enzyme activity. In the presence of an inhibitor, the ratio between product and substrate is altered: the signal of the product decreases, while the signal of the substrate increases.
Activity in each sample is determined as the product to sum ratio (PSR):P/(S+P), where P is the peak height of the product peptide and S is the peak height of the substrate peptide. For each compound, enzyme activity is measured at various concentrations (12 concentrations of compound spaced by 3× dilution intervals). Negative control samples (0%—inhibition in the absence of inhibitor) and positive control samples (100%—inhibition, in the presence of 20 mM EDTA) are assembled in replicates of four and are used to calculate %—inhibition values for each inhibitor at each concentration. Percent inhibition (Pinh) is determined using following equation:
Pinh=(PSR0%−PSRinh)/(PSR0%−PSR100%)*100, where PSRinh is the product sum ratio in the presence of inhibitor, PSR0% is the average product sum ration in the absence of inhibitor and PSR100% is the average product sum ratio in 100%—inhibition control samples.
The IC50 values of inhibitors are determined by 4 parameter sigmoidal dose-response model fitting of the inhibition curves (Pinh versus inhibitor concentration) using XLfit 4 software. […]

The mark [3] stands for this setting: wild-type Btk, read-out: Btk-WT IC50.

T2 sequence (Q06187 whole entry): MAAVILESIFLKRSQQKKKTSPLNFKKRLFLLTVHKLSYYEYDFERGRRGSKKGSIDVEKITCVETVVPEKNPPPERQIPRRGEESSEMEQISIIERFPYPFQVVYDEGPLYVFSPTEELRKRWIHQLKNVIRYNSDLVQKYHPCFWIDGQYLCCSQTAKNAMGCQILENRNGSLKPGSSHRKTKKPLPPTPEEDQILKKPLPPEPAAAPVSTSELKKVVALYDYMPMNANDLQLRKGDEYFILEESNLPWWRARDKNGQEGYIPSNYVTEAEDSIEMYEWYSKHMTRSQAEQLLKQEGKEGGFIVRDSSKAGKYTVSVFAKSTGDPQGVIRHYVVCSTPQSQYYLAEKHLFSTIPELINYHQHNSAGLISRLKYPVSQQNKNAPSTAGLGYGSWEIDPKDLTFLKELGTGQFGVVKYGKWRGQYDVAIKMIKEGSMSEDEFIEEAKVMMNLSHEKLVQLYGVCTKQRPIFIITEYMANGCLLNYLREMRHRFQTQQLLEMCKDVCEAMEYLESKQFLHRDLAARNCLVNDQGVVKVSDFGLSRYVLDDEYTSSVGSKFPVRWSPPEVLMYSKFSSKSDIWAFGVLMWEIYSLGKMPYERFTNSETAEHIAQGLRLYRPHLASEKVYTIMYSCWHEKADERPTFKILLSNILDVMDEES

For `C[C@H](NC(=O)c1noc(C(C)(C)C)n1)c1ccc(-c2ccnc3[nH]nc(N[C@@H]4CCN(C=O)C4)c23)cc1` [Example 96, 5-tert-butyl-N-[(1S)-1-[4-(3-{[(3R)-1-formylpyrrolidin-3-yl]amino}-1H-pyrazolo[3,4-b]pyridin-4-yl)phenyl]ethyl]-1,2,4-oxadiazole-3-carboxamide], the figures for the IC50 in test [1] and in test [2] (setting [3]) were 9640 nM and > 10000 nM, respectively.

On to `C[C@@H]1[C@H](Nc2n[nH]c3nccc(-c4ccc(CNC(=O)c5noc(C(C)(C)C)n5)c(F)c4)c23)CCCN1C(=O)CC#N` [Example 139, 5-tert-butyl-N-{[4-(3-{[(2R,3R)-1-(2-cyanoacetyl)-2-methylpiperidin-3-yl]amino}-1H-pyrazolo[3,4-b]pyridin-4-yl)-2-fluorophenyl]methyl}-1,2,4-oxadiazole-3-carboxamide], for which, in test [1], half-maximal inhibition (IC50) required 5760 nM and the TEC/Btk is listed as 124. Also, in test [2] (setting [3]), the 50% inhibitory concentration (IC50) came out at 46.4 nM.

For the molecule `CC(C)(C)c1ccc(C(=O)NCc2ccc(-c3ccnc4[nH]nc(N[C@H]5CC[C@H](O)CC5)c34)cc2F)cc1` [Compound 12, 4-tert-butyl-N-{[2-fluoro-4-(3-{[(1r,4r)-4-hydroxycyclohexyl]amino}-1H-pyrazolo[3,4-b]pyridin-4-yl)phenyl]methyl}benzamide], in test [1], the TEC/Btk came out at 11. The IC50 in test [2] (setting [3]) was found to be 879 nM.

Take `C[C@@H]1[C@H](Nc2n[nH]c3nccc(-c4ccc(CNC(=O)c5noc(C(C)(C)C)n5)c(F)c4)c23)CCCN1S(=O)(=O)C1CC1` [Example 141, 5-tert-butyl-N-{[4-(3-{[(2R,3R)-1-(cyclopropanesulfonyl)-2-methylpiperidin-3-yl]amino}-1H-pyrazolo[3,4-b]pyridin-4-yl)-2-fluorophenyl]methyl}-1,2,4-oxadiazole-3-carboxamide]: in test [1], the concentration for half-maximal inhibition (IC50) was 3050 nM and the TEC/Btk was found to be 102. For the same molecule, in test [2] (setting [3]), the IC50 was 30 nM.

On to `CC(C)(C)c1ccc(C(=O)NCc2ccc(-c3ccnc4[nH]nc(N[C@H]5CCN(C=O)C5)c34)cc2F)cc1` [Example 61, 4-tert-butyl-N-{[2-fluoro-4-(3-{[(3S)-1-formylpyrrolidin-3-yl]amino}-1H-pyrazolo[3,4-b]pyridin-4-yl)phenyl]methyl}benzamide], for which, in test [1], half-maximal inhibition (IC50) was put at 5950 nM and the TEC/Btk stood at 174. In test [2] (setting [3]), the IC50 was 34.1 nM.

Regarding `CC(C)(C)c1ccc2c(c1)CCN(Cc1ccc(-c3ccnc4[nH]nc(N[C@@H]5CCN(C=O)C5)c34)cc1F)C2=O` [Compound 60, (3R)-3-[(4-{4-[(6-tert-butyl-1-oxo-1,2,3,4-tetrahydroisoquinolin-2-yl)methyl]-3-fluorophenyl}-1H-pyrazolo[3,4-b]pyridin-3-yl)amino]pyrrolidine-1-carbaldehyde], the IC50 worked out at 7420 nM in test [1] and 21 nM in test [2] (setting [3]).

On to `CC(C)(C)c1nc(C(=O)NC2(c3ccc(-c4ccnc5[nH]nc(NC6CCCN(C=O)C6)c45)cc3)CC2)no1` (stereo not shown) [Example 271, 5-tert-butyl-N-[1-(4-{3-[(1-formylpiperidin-3-yl)amino]-1H-pyrazolo[3,4-b]pyridin-4-yl}phenyl)cyclopropyl]-1,2,4-oxadiazole-3-carboxamide], for which, in test [1], the IC50 came out at 5870 nM and the TEC/Btk is given as 053. Also, in test [2] (setting [3]), the IC50 worked out at 111 nM.

As for `C[C@@H]1[C@H](Nc2n[nH]c3nccc(-c4ccc(CNC(=O)c5noc(C(C)(C)C)n5)c(F)c4)c23)CCCN1C(=O)N1CCCC1` [Example 136, 5-tert-butyl-N-{[2-fluoro-4-(3-{[(2R,3R)-2-methyl-1-(pyrrolidine-1-carbonyl)piperidin-3-yl]amino}-1H-pyraozlo[3,4-b]pyridin-4-yl)phenyl]methyl}-1,2,4-oxadiazole-3-carboxamide], in test [1], half-maximal inhibition (IC50) required 7930 nM and the TEC/Btk is 61. In addition, the IC50 in test [2] (setting [3]) worked out at 129 nM.

On to `C[C@H](NC(=O)c1ccc(C(C)(C)C)cc1)c1ccc(-c2ccnc3[nH]nc(N[C@@H]4CCNC4)c23)cc1` [Example 91, 4-tert-butyl-N-[(1S)-1-[4-(3-{[(3R)-pyrrolidin-3-yl]amino}-1H-pyrazolo[3,4-b]pyridin-4-yl)phenyl]ethyl]benzamide], for which the IC50 in test [1] and in test [2] (setting [3]) was > 10000 nM in each case.

With `CC(=O)N[C@@H]1CCN(c2n[nH]c3nccc(-c4ccc(CNC(=O)c5ccc(C(C)(C)O)cc5F)c(F)c4)c23)C1` [Example 423, N-[(4-{3-[(3R)-3-acetamidopyrrolidin-1-yl]-1H-pyrazolo[3,4-b]pyridin-4-yl}-2-fluorophenyl)methyl]-2-fluoro-4-(2-hydroxypropan-2-yl)benzamide], the IC50 turned out to be 3900 nM in test [1] and 50.5 nM in test [2] (setting [3]).

Turning to `C[C@@H](NC(=O)c1noc(C(C)(C)C)n1)c1ccc(-c2ccnc3[nH]nc(N[C@@H]4CCN(C=O)C4)c23)cc1` [Example 99, 5-tert-butyl-N-[(1R)-1-[4-(3-{[(3R)-1-formylpyrrolidin-3-yl]amino}-1H-pyrazolo[3,4-b]pyridin-4-yl)phenyl]ethyl]-1,2,4-oxadiazole-3-carboxamide], the IC50 was 1430 nM in test [1]; < 10 nM in test [2] (method is one of A, B or C, not stated which, read-out: IC50 values against Btk); 4.46 nM in test [2] (setting [3]). Besides, the TEC/Btk in test [1] came out at 321.

As to `CCc1nc(C(=O)NCc2ccc(-c3ccnc4[nH]nc(N[C@@H]5CCNC5)c34)cc2F)no1` [Example 54], the IC50 in test [1] and in test [2] (setting [3]) was > 10000 nM in each case.
